# Measurements as given in US9273043B2, “TRPV1 antagonists including dihydroxy substituent and uses thereof” (Purdue Pharma L.P., priority 2011, dated 2016).
# Marks after values point to notes of the source that are not given here.
# Test system: MIA-induced osteoarthritis pain
# Test: MIA-induced osteoarthritis model, grip force test
# Format: in vivo, rat
# Conditions: rat MIA, grip force
# Excerpt: Osteoarthritis Pain: To assess the actions of a Compound of Formula (I) for the treatment or prevention of osteoarthritis pain, the rat monosodium iodo-acetate (MIA, i.e., sodium 2-iodoacetate) induced osteoarthritis model was used. Intra-articular injection of MIA causes joint degeneration characterized by osteolysis and swelling, with displacement of the patella, and reductions in bone mineral content and bone mineral density (Pomonis et al., “Development and pharmacological characterization of a rat model of osteoarthritis pain,” Pain 114: 339-346 (2005)). Under isoflurane anaesthesia, an intra-articular injection of 2 mg of MIA (Sigma-Aldrich) in 50 μl of saline was administered through the infrapatellar ligament of the knee joint of the right hind leg of the male, 6 week old Crl:CD(SD) rats. Control rats received an intra-articular injection of 50 μl of saline into the knee joint of the right hind leg. The left knee joint of all rats was untreated. Two weeks after MIA injection, rats were assessed for osteoarthritis pain related-behaviors immediately prior to and 1, 3, 5, 7, and 24 hours after oral drug-in-vehicle administration (for day 1) by determining their weight-bearing capabilities, via the weight bearing difference (WBD) test, and their gripping capabilities, via the grip force test, each as described below. Thus, in the assessment for osteoarthritis pain relief through gripping capability determinations, the 24 hour time point was the start of the next day when drug-in-vehicle was again orally administered (24 hours after the prior administration) for certain dosages. On days 2, 3, and 4, gripping capability response was determined 3 and 24 hours thereafter.
# The grip force (GF) of the hind legs was assessed using a Animal Grip Strength System (San Diego Instruments, San Diego, Calif.). Rats were gently restrained and allowed to grasp the wire mesh strain gauge with their hind legs. The animals were then moved in a rostral-caudal direction until they let go of the gauge. The force (in g) at which the rat let go was recorded. Each animal was tested twice at approximately 3-10 minute intervals at each time point and the average of the two readings was used for the GF in data analysis.
# Grip force, normalized to account for the weight of each animal, was expressed as “GF/B”, i.e., the ratio of GF to body weight, where GF is the grip force in grams and B is the body weight of the animal in kg. The “% GFR”, i.e., the percentage reversal of the (normalized) grip force impediment occurring post-MIA injection, was determined for each dosage at each time point using the following formula:
# [formula] where (GF/B)Drug is the GF/B determined at each post-oral-administration time-point for each dose of each substance administered to MIA-injected animals, (GF/B)Vehicle is the GF/B determined at each post-oral-administration time-point for the vehicle control administered to MIA-injected animals, and (GF/B)Control Rat is the GF/B determined for control rats (saline-injected animals receiving orally-administered vehicle only). With the exception of the controls (i.e., celecoxib, vehicle) where the student's t-test was used, Dunnett's test was conducted for the % GFR. In either instance, values with p <0.05 were considered to be statistically significant.
structure (smiles),measurement,setting,value
CC1CN(c2ncc(C(O)CO)cc2F)CCN1C(=O)Nc1nc2cc(F)ccc2s1.O=C(O)C=CC(=O)O (stereo not drawn),% GFR [mean],"oral 0.3 mg/kg, 1 h (day 1)",12.8%
same,% GFR [mean],"oral 0.3 mg/kg, 3 h (day 1)",21.1* %
same,% GFR [mean],"oral 0.3 mg/kg, 3 h (day 1), listed as product prepared with Compound A155(a) and fumaric acid",21.1%
same,% GFR [mean],"oral 0.3 mg/kg, 5 h (day 1)",17.3* %
same,% GFR [mean],"oral 0.3 mg/kg, 7 h (day 1)",3.7%
same,% GFR [mean],"oral 0.3 mg/kg, 24 h after day 1 dose (0 hrs day 2)",4.0%
same,% GFR [mean],"oral 1 mg/kg once daily, 3 h (day 2)",43.1** %
same,% GFR [mean],"oral 1 mg/kg once daily, 3 h (day 2), listed as product prepared with Compound A155(a) and fumaric acid",43.1%
same,% GFR [mean],"oral 1 mg/kg once daily, 3 h (day 3)",38.0** %
same,% GFR [mean],"oral 1 mg/kg once daily, 3 h (day 3), listed as product prepared with Compound A155(a) and fumaric acid",38.0%
same,% GFR [mean],"oral 1 mg/kg once daily, 3 h (day 4)",40.1** %
same,% GFR [mean],"oral 1 mg/kg once daily, 3 h (day 4), listed as product prepared with Compound A155(a) and fumaric acid",40.1%
same,% GFR [mean],"oral 1 mg/kg once daily, 24 h after day 2 dose (0 hrs day 3)",15.4** %
same,% GFR [mean],"oral 1 mg/kg once daily, 24 h after day 3 dose (0 hrs day 4)",26.1** %
same,% GFR [mean],"oral 1 mg/kg once daily, 24 h after day 4 dose (0 hrs day 5)",26.4** %
same,% GFR [mean],"oral 1 mg/kg, 1 h (day 1)",29.7** %
same,% GFR [mean],"oral 1 mg/kg, 3 h (day 1)",45.2** %
same,% GFR [mean],"oral 1 mg/kg, 3 h (day 1), listed as product prepared with Compound A155(a) and fumaric acid",45.2%
same,% GFR [mean],"oral 1 mg/kg, 5 h (day 1)",37.6** %
same,% GFR [mean],"oral 1 mg/kg, 7 h (day 1)",16.5* %
same,% GFR [mean],"oral 1 mg/kg, 24 h after day 1 dose (0 hrs day 2)",3.1%
same,% GFR [mean],"oral 3 mg/kg once daily, 3 h (day 2)",50.5** %
same,% GFR [mean],"oral 3 mg/kg once daily, 3 h (day 2), listed as product prepared with Compound A155(a) and fumaric acid",50.5%
same,% GFR [mean],"oral 3 mg/kg once daily, 3 h (day 3)",45.0** %
same,% GFR [mean],"oral 3 mg/kg once daily, 3 h (day 3), listed as product prepared with Compound A155(a) and fumaric acid",45.0%
same,% GFR [mean],"oral 3 mg/kg once daily, 3 h (day 4)",45.6** %
same,% GFR [mean],"oral 3 mg/kg once daily, 3 h (day 4), listed as product prepared with Compound A155(a) and fumaric acid",45.6%
same,% GFR [mean],"oral 3 mg/kg once daily, 24 h after day 2 dose (0 hrs day 3)",22.0** %
same,% GFR [mean],"oral 3 mg/kg once daily, 24 h after day 3 dose (0 hrs day 4)",32.0** %
same,% GFR [mean],"oral 3 mg/kg once daily, 24 h after day 4 dose (0 hrs day 5)",28.9** %
same,% GFR [mean],"oral 3 mg/kg, 1 h (day 1)",36.5** %
same,% GFR [mean],"oral 3 mg/kg, 3 h (day 1)",53.6** %
same,% GFR [mean],"oral 3 mg/kg, 3 h (day 1), listed as product prepared with Compound A155(a) and fumaric acid",53.6%
same,% GFR [mean],"oral 3 mg/kg, 5 h (day 1)",44.3** %
same,% GFR [mean],"oral 3 mg/kg, 7 h (day 1)",19.9** %
same,% GFR [mean],"oral 3 mg/kg, 24 h after day 1 dose (0 hrs day 2)",−2.2%
same,% GFR [mean],"oral 10 mg/kg once daily, 3 h (day 2)",57.5** %
same,% GFR [mean],"oral 10 mg/kg once daily, 3 h (day 2), listed as product prepared with Compound A155(a) and fumaric acid",57.5%
same,% GFR [mean],"oral 10 mg/kg once daily, 3 h (day 3)",51.6** %
same,% GFR [mean],"oral 10 mg/kg once daily, 3 h (day 3), listed as product prepared with Compound A155(a) and fumaric acid",51.6%
same,% GFR [mean],"oral 10 mg/kg once daily, 3 h (day 4)",52.2** %
same,% GFR [mean],"oral 10 mg/kg once daily, 3 h (day 4), listed as product prepared with Compound A155(a) and fumaric acid",52.2%
same,% GFR [mean],"oral 10 mg/kg once daily, 24 h after day 2 dose (0 hrs day 3)",32.7** %
same,% GFR [mean],"oral 10 mg/kg once daily, 24 h after day 3 dose (0 hrs day 4)",33.4** %
same,% GFR [mean],"oral 10 mg/kg once daily, 24 h after day 4 dose (0 hrs day 5)",32.0** %
same,% GFR [mean],"oral 10 mg/kg, 1 h (day 1)",35.9** %
same,% GFR [mean],"oral 10 mg/kg, 3 h (day 1)",55.6** %
same,% GFR [mean],"oral 10 mg/kg, 3 h (day 1), listed as product prepared with Compound A155(a) and fumaric acid",55.6%
same,% GFR [mean],"oral 10 mg/kg, 5 h (day 1)",45.9** %
same,% GFR [mean],"oral 10 mg/kg, 7 h (day 1)",22.8** %
same,% GFR [mean],"oral 10 mg/kg, 24 h after day 1 dose (0 hrs day 2)",−5.7%
same,% GFR [mean],"oral 20 mg/kg, 1 h (day 1)",49.0** %
same,% GFR [mean],"oral 20 mg/kg, 3 h (day 1)",65.1** %
same,% GFR [mean],"oral 20 mg/kg, 3 h (day 1), listed as product prepared with Compound A155(a) and fumaric acid",65.1%
same,% GFR [mean],"oral 20 mg/kg, 5 h (day 1)",50.3** %
same,% GFR [mean],"oral 20 mg/kg, 7 h (day 1)",29.3** %
same,% GFR [mean],"oral 20 mg/kg, 24 h after day 1 dose (0 hrs day 2)",−1.3%
